Measurements: US20250179103A1, “6-OXODECAHYDROPYRROLO[1,2-A][1,5]DIAZOCINE AND 6-OXODECAHYDRO-4H-PYRROLO[2,1-D][1,5]THIAZOCINE DERIVATIVES AS STAT3 AND STAT6 MODULATORS FOR THE TREATMENT OF CANCER AND INFLAMMATORY CONDITIONS” (Recludix Pharma, Inc., priority 2022, published 2025)

Assays:
[1] = molecular target: T1, Recombinant STAT3 protein (STAT3(G127-I722)) (Homo sapiens, UniProt P40763); assay: STAT3 Fluorescence Polarization (FP) Assay; assay type: binding; conditions: STAT3(G127-I722) 25 nM, probe 5-FAM-GpYLPQTV-NH2 2 nM, 45-minute incubation
T1 construct: Recombinant STAT3 protein (STAT3(G127-I722))
Summary of the method: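 STAT3(G127-I722), 25 nM, was mixed with 2 nM 5-FAM-GpYLPQTV-NH2 probe in HEPES pH 7.4 buffer with 1% DMSO and serially diluted compound. FP (mP) was read after 45 min at room temperature. IC50 came from nonlinear regression.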

[2] = molecular target: T2, Recombinant STAT6 protein (STAT6(W123-T658)) (Homo sapiens, UniProt P42226); assay: STAT6 Fluorescence Polarization (FP) Assay; assay type: binding; conditions: STAT6(W123-T658) 250 nM, probe 5-FAM-ApYKPFQDLI-NH2 2 nM, 45-minute incubation
T2 construct: Recombinant STAT6 protein (STAT6(W123-T658))
T2 sequence (P42226 123-658): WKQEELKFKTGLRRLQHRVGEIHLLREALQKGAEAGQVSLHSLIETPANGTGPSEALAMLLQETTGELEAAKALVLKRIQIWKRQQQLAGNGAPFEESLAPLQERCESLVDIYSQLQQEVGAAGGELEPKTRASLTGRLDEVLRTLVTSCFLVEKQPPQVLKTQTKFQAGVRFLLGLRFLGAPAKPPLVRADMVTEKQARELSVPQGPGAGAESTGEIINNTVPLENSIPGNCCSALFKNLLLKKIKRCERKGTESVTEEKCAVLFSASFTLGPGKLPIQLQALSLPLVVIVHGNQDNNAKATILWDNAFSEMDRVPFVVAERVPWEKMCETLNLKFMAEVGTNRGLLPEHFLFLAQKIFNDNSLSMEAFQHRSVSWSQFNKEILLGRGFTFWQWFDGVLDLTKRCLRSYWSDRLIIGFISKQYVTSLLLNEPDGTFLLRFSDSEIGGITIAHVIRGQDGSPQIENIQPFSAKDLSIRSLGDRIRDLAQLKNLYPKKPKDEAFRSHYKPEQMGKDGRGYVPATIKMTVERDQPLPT
Summary of the method: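 Displacement of a fluorescent phosphotyrosine peptide (5-FAM-ApYKPFQDLI-NH2, 2 nM) from STAT6(W123-T658) (250 nM), 1% DMSO, pH 7.4 HEPES buffer. After 45 min at room temperature, polarization (mP) was plotted versus log compound concentration and fitted by nonlinear regression to give IC50.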

T1 sequence (P40763 127-722): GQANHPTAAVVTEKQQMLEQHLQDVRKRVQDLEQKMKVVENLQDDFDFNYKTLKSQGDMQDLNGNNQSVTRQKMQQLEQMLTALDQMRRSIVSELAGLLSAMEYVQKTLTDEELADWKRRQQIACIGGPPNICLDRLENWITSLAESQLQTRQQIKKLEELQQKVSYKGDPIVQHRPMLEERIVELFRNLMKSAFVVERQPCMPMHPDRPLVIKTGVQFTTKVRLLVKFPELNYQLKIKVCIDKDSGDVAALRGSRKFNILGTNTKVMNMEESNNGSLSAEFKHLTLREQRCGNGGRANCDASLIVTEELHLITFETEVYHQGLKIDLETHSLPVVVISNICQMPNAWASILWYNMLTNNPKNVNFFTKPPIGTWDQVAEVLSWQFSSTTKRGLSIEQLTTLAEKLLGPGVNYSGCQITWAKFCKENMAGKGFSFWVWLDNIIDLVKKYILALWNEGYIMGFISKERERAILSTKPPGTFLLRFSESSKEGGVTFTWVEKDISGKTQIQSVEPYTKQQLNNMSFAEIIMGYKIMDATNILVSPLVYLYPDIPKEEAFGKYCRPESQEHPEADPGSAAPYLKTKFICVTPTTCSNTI

Compound	IC50 [1]	IC50 [2]
CN(C(=O)[C@@H]1CC[C@@H]2CCN(C(=O)c3ccccc3)C[C@H](NC(=O)c3cc4cc(C(F)(F)P(=O)(O)O)ccc4[nH]3)C(=O)N21)c1ccccc1 [Compound 220, ((2-(((5S,8S,10aR)-3-benzoyl-8-(methyl(phenyl)carbamoyl)-6-oxodecahydropyrrolo[1,2-a][1,5]diazocin-5-yl)carbamoyl)-1H-indol-5-yl)difluoromethyl)phosphonic acid]	> 10 µM	0.3 to 3 µM
Cc1ccc2onc(C(=O)N3CC[C@H]4CC[C@@H](C(=O)N5CC6CCC(C5)O6)N4C(=O)[C@@H](NC(=O)c4ccc5ccc([C@H](F)P(=O)(O)O)cc5c4)C3)c2c1 [Compound 377, ((1R)-(7-(((5S,8S,10aR)-8-(8-oxa-3-azabicyclo[3.2.1]octane-3-carbonyl)-3-(5-methylbenzo[d]isoxazole-3-carbonyl)-6-oxodecahydropyrrolo [1,2-a][1,5]diazocin-5-yl)carbamoyl)naphthalen-2-yl)fluoromethyl)phosphonic acid]	> 10 µM	≤ 0.3 µM
N#C[C@@H]1CN(C(=O)[C@@H]2CC[C@@H]3CCN(CC(F)F)C[C@H](NC(=O)c4ccc5ccc(C(F)(F)P(=O)(O)O)cc5c4)C(=O)N32)C[C@H]1c1ccccc1 (single isomer, unassigned) [Compound 248, ((7-(((5S,8S,10aR)-8-((3S,4R or 3R,4S)-3-cyano-4-phenylpyrrolidine-1-carbonyl)-3-(2,2-difluoroethyl)-6-oxodecahydropyrrolo[1,2-a][1,5]diazocin-5-yl)carbamoyl)naphthalen-2-yl)difluoromethyl)phosphonic acid]	1 to 10 µM	≤ 0.3 µM
Cc1ccc2onc(C(=O)N3CC[C@H]4CC[C@@H](C(=O)N5CCN(c6nsc7ccccc67)CC5)N4C(=O)[C@@H](NC(=O)c4ccc5ccc(C(F)P(=O)(O)O)cc5c4)C3)c2c1 (stereo partly drawn) [Compound 369, ((7-(((5S,8S,10aR)-8-(4-(benzo[d]isothiazol-3-yl)piperazine-1-carbonyl)-3-(5-methylbenzo[d]isoxazole-3-carbonyl)-6-oxodecahydropyrrolo [1,2-a][1,5]diazocin-5-yl)carbamoyl)naphthalen-2-yl)fluoromethyl) phosphonic acid]	1 to 10 µM	≤ 0.3 µM
CC(=O)N1CC[C@H]2CC[C@@H](C(=O)N(Cc3ccccc3)c3ccccc3)N2C(=O)[C@@H](NC(=O)c2cc3cc(C(F)(F)P(=O)(O)O)ccc3[nH]2)C1 [Compound 56, ((2-(((5S,8S,10aR)-3-acetyl-8-(benzyl(phenyl)carbamoyl)-6-oxodecahydropyrrolo[1,2-a][1,5]diazocin-5-yl)carbamoyl)-1H-indol-5-yl)difluoromethyl)phosphonic acid]	1 to 10 µM	0.3 to 3 µM
CC(=O)N1CC[C@H]2CC[C@@H](C(=O)N3CC(c4ccccc4)[C@@H](c4ccccc4)C3)N2C(=O)[C@@H](NC(=O)c2cc3cc(C(F)(F)P(=O)(O)O)ccc3s2)C1 (relative stereo) [Compound 143, ((2-(((5S,8S,10aR)-3-acetyl-8-((rel-trans)-3,4-diphenylpyrrolidine-1-carbonyl)-6-oxodecahydropyrrolo[1,2-a][1,5]diazocin-5-yl)carbamoyl)benzo[b]thiophen-5-yl)difluoromethyl)phosphonic acid]	1 to 10 µM	≤ 0.3 µM
N#C[C@H]1CN(C(=O)[C@@H]2CC[C@@H]3CN(C(=O)OCc4ccccc4)CC[C@H](NC(=O)c4ccc5ccc(C(F)(F)P(=O)(O)O)cc5c4)C(=O)N32)C[C@@H]1c1ccccc1 (relative stereo) [Compound 213, ((7-(((5S,8S,10aR)-2-((benzyloxy)carbonyl)-8-((rel-trans)-3-cyano-4-phenylpyrrolidine-1-carbonyl)-6-oxodecahydropyrrolo[1,2-a][1,4]diazocin-5-yl)carbamoyl)naphthalen-2-yl)difluoromethyl)phosphonic acid]	1 to 10 µM	≤ 0.3 µM
CC(=O)N1CC[C@H]2CC[C@@H](C(=O)N[C@H]3CCC[C@H]3N)N2C(=O)[C@@H](NC(=O)c2cc3cc(C(F)(F)P(=O)(O)O)ccc3[nH]2)C1 [Compound 31, ((2-(((5S,8S,10aR)-3-acetyl-8-(((1S,2R)-2-aminocyclopentyl)carbamoyl)-6-oxodecahydropyrrolo[1,2-a][1,5]diazocin-5-yl)carbamoyl)-1H-indol-5-yl)difluoromethyl)phosphonic acid]	1 to 10 µM	0.3 to 3 µM

Further lines, results first:

IC50 [1]	IC50 [2]	Compound
0.1 to 1 µM	0.3 to 3 µM	C[C@@H](CC(=O)N1CC[C@H]2CC[C@@H](C(=O)N3CCCC3)N2C(=O)[C@@H](NC(=O)c2cc3cc(C(F)(F)P(=O)(O)O)ccc3s2)C1)c1ccccc1 [Compound 261, (difluoro(2-(((5S,8S,10aR)-6-oxo-3-((S)-3-phenylbutanoyl)-8-(pyrrolidine-1-carbonyl)decahydropyrrolo[1,2-a][1,5]diazocin-5-yl)carbamoyl)benzo[b]thiophen-5-yl)methyl)phosphonic acid]
1 to 10 µM	0.3 to 3 µM	CC(=O)N1CC[C@H]2CC[C@@H](C(=O)N(C)c3ccc(C(C)(C)c4ccccc4)cc3)N2C(=O)[C@@H](NC(=O)c2cc3cc(C(F)(F)P(=O)(O)O)ccc3s2)C1 [Compound 155, ((2-(((5S,8S,10aR)-3-acetyl-8-(methyl(4-(2-phenylpropan-2-yl)phenyl)carbamoyl)-6-oxodecahydropyrrolo[1,2-a][1,5]diazocin-5-yl)carbamoyl)benzo[b]thiophen-5-yl)difluoromethyl)phosphonic acid]
1 to 10 µM	0.3 to 3 µM	CC(=O)N1CC[C@H]2CC[C@@H](C(=O)Nc3ccc4nccnc4c3)N2C(=O)[C@@H](NC(=O)c2cc3cc(C(F)(F)P(=O)(O)O)ccc3s2)C1 [Compound 69, ((2-(((5S,8S,10aR)-3-aceytl-6-oxo-8-(quinoxalin-6-ylcarbamoyl)decahydropyrrolo[1,2-a][1,5]diazocin-5-yl)carbamoyl)benzo[b]thiophen-5-yl)difluoromethyl)phosphonic acid]
1 to 10 µM	0.3 to 3 µM	CC(=O)N1CC(N(C)C(=O)[C@@H]2CC[C@@H]3CCN(C(C)=O)C[C@H](NC(=O)c4cc5cc(C(F)(F)P(=O)(O)O)ccc5[nH]4)C(=O)N32)C1 [Compound 170, ((2-(((5S,8S,10aR)-3-acetyl-8-((1-acetylazetidin-3-yl)(methyl)carbamoyl)-6-oxodecahydropyrrolo[1,2-a][1,5]diazocin-5-yl)carbamoyl)-1H-indol-5-yl)difluoromethyl)phosphonic acid]
1 to 10 µM	3 to 30 µM	O=C(N[C@H]1CN(c2cc3ccccc3cn2)CC[C@H]2CC[C@@H](C(=O)N3CCOCC3)N2C1=O)c1ccc2ccc(C(F)P(=O)(O)O)cc2c1 (stereo partly drawn) [Compound 392, (fluoro(7-(((5S,8S, 10aR)-3-(isoquinolin-3-yl)-8-(morpholine-4-carbonyl)-6-oxodecahydropyrrolo [1,2-a][1,5]diazocin-5-yl)carbamoyl)naphthalen-2-yl)methyl)phosphonic acid]
1 to 10 µM	0.3 to 3 µM	CC(=O)N1CC[C@H]2CC[C@@H](C(=O)N(C)c3ccc(OCCN(C)C)cc3)N2C(=O)[C@@H](NC(=O)c2cc3cc(C(F)(F)P(=O)(O)O)ccc3[nH]2)C1 [Compound 102, ((2-(((5S,8S,10aR)-3-acetyl-8-((4-(2-(dimethylamino)ethoxy)phenyl)(methyl)carbamoyl)-6-oxodecahydropyrrolo[1,2-a][1,5]diazocin-5-yl)carbamoyl)-1H-indol-5-yl)difluoromethyl)phosphonic acid]
0.1 to 1 µM	3 to 30 µM	CC(=O)N1CC[C@H]2CC[C@@H](C(=O)N3CC(C(=O)N4CCOCC4)C3)N2C(=O)[C@@H](NC(=O)c2cc3cc(C(F)(F)P(=O)(O)O)ccc3s2)C1 [Compound 77, ((2-(((5S,8S,10aR)-3-acetyl-8-(3-(morpholine-4-carbonyl)azetidine-1-carbonyl)-6-oxodecahydropyrrolo[1,2-a][1,5]diazocin-5-yl)carbamoyl)benzo[b]thiophen-5-yl)difluoromethyl)phosphonic acid]
0.1 to 1 µM	0.3 to 3 µM	CC(=O)Nc1ccn(C2CCN(C(=O)[C@@H]3CC[C@@H]4CCN(C(C)=O)C[C@H](NC(=O)c5cc6cc(C(F)(F)P(=O)(O)O)ccc6s5)C(=O)N43)C2)n1 (stereo partly drawn) [Compound 84, ((2-(((5S,8S,10aR)-8-(3-(3-acetamido-1H-pyrazol-1-yl)pyrrolidine-1-carbonyl)-3-acetyl-6-oxodecahydropyrrolo[1,2-a][1,5]diazocin-5-yl)carbamoyl)benzo[b]thiophen-5-yl)difluoromethyl)phosphonic acid]
